These results are taken from PMC3608651, “A Broad Profile of Co-Dominant Epitopes Shapes the Peripheral Mycobacterium tuberculosis Specific CD8+ T-Cell Immune Response in South African Patients with Active Tuberculosis” (PLoS ONE, 2013).

In experiment [1] the target is T1, HLA-A*24:02 (Homo sapiens, UniProt P04439, D101N/D140Y/D185E/E176V/E190D/F33S/G103R/G107R/I119L/I121M/I306V/K335N/L105A/L180Q/L300P/N151K/N90K/Q86E/Q94H/R106L/R138H/R89G/T104I/T345S/V100E/W191G/Y123F). As to conditions: cited from earlier work.
For experiment [2], the target named is T1, HLA-A*24:02. As to conditions: percent relative the binding of a positive control peptide, cited from earlier work.
Experiment [3] deals with T1, HLA-A*24:02. As to conditions: cited from earlier work. The source holds these as a separate data set.
Experiment [4] addresses T2, HLA-A*02:01 (Homo sapiens, UniProt P04439, D140Y/D185E/D98H/E176V/E277Q/G131W/G231S/I119V/I121R/I166T/I218V/L300P/L318F/N151K/N90K/P208A/P217A/Q86G/Q94H/R138H/R169H/T345S). As to conditions: percent relative the binding of a positive control peptide, cited from earlier work.
Experiment [5] deals with T2, HLA-A*02:01. Conditions: cited from earlier work.
Experiment [6] addresses T2, HLA-A*02:01. Conditions: cited from earlier work. This is another data set of the same source.
Experiment [7] has as its target T3, HLA-A*68:01 (Homo sapiens, UniProt P04439, A269V/D185E/E176V/E277Q/E87N/F33Y/G231S/I121M/I166T/I218V/L180W/L300P/L318F/N151K/P208A/P217A/Q86R/R169H/T345S). It is filed as binding. As to conditions: duplicated experiments, positive binder >40%.
The target in experiment [8] is T4, HLA-B*58:01 (Homo sapiens, UniProt P01889, A329T/C349S/D201E/D98Y/E176V/E187L/E204Q/E69T/G107R/I218V/I90N/K202T/L105A/L119I/N104I/N87E/Q89R/Q94S/R106L/R155S/R180L/R86G/S101N/S121R/S35A/S48A/T118I/V127L/V306I/V36M/Y140S/Y91M). It is filed as binding. Conditions: percent relative the binding of positive control peptide […]; duplicated experiments; positive binder >40%.

The target in another experiment is HLA-C*07:01 (Homo sapiens, UniProt P10321, K90N/S123Y). It is filed as binding. Conditions: percent relative the binding of positive control peptide […]; duplicated experiments; positive binder >40%.
Experiment [9] concerns the target T5, HLA-A*30:02 (Homo sapiens, UniProt P04439, D101N/D140H/D185E/E176R/F33S/G80R/H175R/K168Q/Q94H/R138E/R41S/V100E). As to conditions: percent relative the binding of a positive control peptide, cited from earlier work.
Experiment [10] deals with T3, HLA-A*68:01. It is filed as binding. Conditions: time points 0-8 h.
Experiment [11] has as its target T5, HLA-A*30:02. Conditions: cited from earlier work.
For experiment [12], the target named is T3, HLA-A*68:01. It counts as binding.
Experiment [13] has as its target T5, HLA-A*30:02. As to conditions: cited from earlier work. The source holds these as a separate data set.
The target in experiment [14] is T4, HLA-B*58:01. It counts as binding.
Experiment [15] has as its target T4, HLA-B*58:01. It counts as binding. As to conditions: time points 0-8 h.

Read-outs that look alike come from different tables or passages of the source. Marks after values point to notes of the source that are not given here.

Consider GYAGTLQSL [Rv0288_20–28wt], for which, on HLA-A*24:02 [1], the “O-rate A*24:02 (t1/2)” value was 3.7 h. Besides, the “Bind A*24:02” value at HLA-A*24:02 [2] ([…]) is 76* percent. Also, the “Aff A*24:02 (ED50)” value on HLA-A*24:02 [3] is 300 nM.

With MLGHAGDMA [Rv0288_11–19wt], the “Bind A*02:01” value on HLA-A*02:01 [4] (wild-type epitopes marked *) is 67* percent. In addition, at HLA-A*02:01 [5] (wild-type epitopes marked *), the “O-rate A*02:01 (t1/2)” value is given as 1.4 h. For the same sequence, the “Aff A*02:01 (ED50)” value on HLA-A*02:01 [6] (wild-type epitopes marked *) was 7e-07 M.

In the case of HAMSSTHEA [Rv0288_70–78], the “Bind A*68:01” value at HLA-A*68:01 [7] (percent relative the binding of positive control peptide […]) came out at 77%. In addition, the “Bind B*58:01” value on HLA-B*58:01 [8] is 16%. The “Bind C*07:01” value at HLA-C*07:01 came to 6%. In addition, at HLA-A*30:02 [9] ([…]), the “Bind A*30:02” value is 88** percent. For the same sequence, the “O-rate A*68:01 (t1/2)” value on HLA-A*68:01 [10] worked out at 0.5 h. The “O-rate A*30:02 (t1/2)” value at HLA-A*30:02 [11] is reported as 0.6 h. The “Bind A*02:01” value at HLA-A*02:01 [4] ([…]) is 43* percent. In addition, the “Aff A*68:01 (ED50)” value at HLA-A*68:01 [12] was determined as 6000 nM. Also, on HLA-A*02:01 [5], the “O-rate A*02:01 (t1/2)” value is given as 2.5 h. The “Aff A*02:01 (ED50)” value at HLA-A*02:01 [6] was 6e-06 M. Moreover, on HLA-A*30:02 [13], the “Aff A*30:02 (ED50)” value is 300 nM.

Turning to AYHAMSSTH [Rv0288_68–76wt], the “Bind A*30:02” value on HLA-A*30:02 [9] (wild-type epitopes marked **) is reported as 70** percent. Moreover, the “O-rate A*30:02 (t1/2)” value at HLA-A*30:02 [11] (wild-type epitopes marked **) was 1.2 h. The “Aff A*30:02 (ED50)” value on HLA-A*30:02 [13] (wild-type epitopes marked **) is 300 nM.

In the case of QSLGAEIAV [Rv0288_26–34wt], the “Aff B*58:01 (ED50)” value at HLA-B*58:01 [14] was found to be 200000 nM. Besides, the “O-rate B*58:01 (t1/2)” value on HLA-B*58:01 [15] amounted to 6 min. Besides, the “Bind B*58:01” value at HLA-B*58:01 [8] is 30%. For the same sequence, at HLA-A*02:01 [4] ([…]), the “Bind A*02:01” value was 48* percent. In addition, the “Aff A*02:01 (ED50)” value at HLA-A*02:01 [6] is 2e-06 M.

With MYNYPAMLG [Rv0288_5–13wt], on HLA-A*24:02 [1] (wild-type epitopes marked *), the “O-rate A*24:02 (t1/2)” value was 1.4 h. In addition, at HLA-A*30:02 [9] (wild-type epitopes marked **), the “Bind A*30:02” value is reported as 45** percent. In addition, the “Bind A*24:02” value at HLA-A*24:02 [2] (wild-type epitopes marked *) is 72* percent. Besides, the “O-rate A*30:02 (t1/2)” value on HLA-A*30:02 [11] (wild-type epitopes marked **) is recorded as 0.6 h. The “Aff A*24:02 (ED50)” value at HLA-A*24:02 [3] (wild-type epitopes marked *) was 600 nM. The “Aff A*30:02 (ED50)” value on HLA-A*30:02 [13] (wild-type epitopes marked **) was 7000 nM.

As for TLQSLGAEI [Rv0288_24–32wt], the “O-rate A*24:02 (t1/2)” value at HLA-A*24:02 [1] (wild-type epitopes marked *) is 39.8 h. Besides, the “Bind A*24:02” value at HLA-A*24:02 [2] (wild-type epitopes marked *) is recorded as 16* percent. The “Bind A*02:01” value on HLA-A*02:01 [4] (wild-type epitopes marked *) is given as 46* percent. For the same sequence, the “Aff A*24:02 (ED50)” value at HLA-A*24:02 [3] (wild-type epitopes marked *) was 90 nM. The “O-rate A*02:01 (t1/2)” value at HLA-A*02:01 [5] (wild-type epitopes marked *) is recorded as 1.7 h. Also, on HLA-A*02:01 [6] (wild-type epitopes marked *), the “Aff A*02:01 (ED50)” value is 3e-06 M.

AMLGHAGDM [Rv0288_10–18wt]: the “O-rate A*24:02 (t1/2)” value at HLA-A*24:02 [1] (wild-type epitopes marked *) is on record as 3.1 h. On HLA-A*30:02 [9] (wild-type epitopes marked **), the “Bind A*30:02” value was 97** percent. Further, the “Bind A*24:02” value on HLA-A*24:02 [2] (wild-type epitopes marked *) was 25* percent. The “O-rate A*30:02 (t1/2)” value on HLA-A*30:02 [11] (wild-type epitopes marked **) is on record as 1.2 h. Further, on HLA-A*02:01 [4] (wild-type epitopes marked *), the “Bind A*02:01” value is 46* percent. In addition, the “Aff A*24:02 (ED50)” value at HLA-A*24:02 [3] (wild-type epitopes marked *) is 100000 nM. Moreover, the “O-rate A*02:01 (t1/2)” value at HLA-A*02:01 [5] (wild-type epitopes marked *) is listed as 1.7 h. For the same sequence, the “Aff A*02:01 (ED50)” value at HLA-A*02:01 [6] (wild-type epitopes marked *) is 6e-06 M. The “Aff A*30:02 (ED50)” value on HLA-A*30:02 [13] (wild-type epitopes marked **) was 50 nM.

Take SQIMYNYPA [Rv0288_2–10wt]: the “Bind A*30:02” value on HLA-A*30:02 [9] ([…]) is on record as 46** percent. For the same sequence, the “O-rate A*30:02 (t1/2)” value at HLA-A*30:02 [11] is recorded as 0.3 h. Also, the “Bind A*02:01” value at HLA-A*02:01 [4] ([…]) is listed as 78* percent. Also, at HLA-A*02:01 [5], the “O-rate A*02:01 (t1/2)” value is listed as 4.9* h. Besides, the “Aff A*02:01 (ED50)” value at HLA-A*02:01 [6] was 4E-07* M. Further, at HLA-A*30:02 [13], the “Aff A*30:02 (ED50)” value is 2000 nM.

SLGAEIAVE [Rv0288_27–35wt]: the “Bind A*02:01” value at HLA-A*02:01 [4] (wild-type epitopes marked *) is 28* percent. Moreover, on HLA-A*02:01 [5] (wild-type epitopes marked *), the “O-rate A*02:01 (t1/2)” value was 1.8 h. The “Aff A*02:01 (ED50)” value at HLA-A*02:01 [6] (wild-type epitopes marked *) was 1e-05 M.

For the sequence GHAGDMAGY [Rv0288_13–21wt], the “Bind A*30:02” value at HLA-A*30:02 [9] (wild-type epitopes marked **) is 71** percent. The “O-rate A*30:02 (t1/2)” value at HLA-A*30:02 [11] (wild-type epitopes marked **) is recorded as 1.3 h. At HLA-A*30:02 [13] (wild-type epitopes marked **), the “Aff A*30:02 (ED50)” value was 40 nM.

Regarding DLVRAYHAM [Rv0288_64–72wt], the “Bind A*68:01” value on HLA-A*68:01 [7] (percent relative the binding of positive control peptide KTGGPIYKR) was 34%. For the same sequence, the “O-rate A*24:02 (t1/2)” value at HLA-A*24:02 [1] (wild-type epitopes marked *) is 2.9 h. Besides, the “Bind A*24:02” value at HLA-A*24:02 [2] (wild-type epitopes marked *) is 31* percent. For the same sequence, the “O-rate A*68:01 (t1/2)” value at HLA-A*68:01 [10] is reported as 3.3 h. The “Aff A*68:01 (ED50)” value on HLA-A*68:01 [12] (peptide titrated 10−4 to 10−9 M) amounted to 400000 nM. Also, the “Aff A*24:02 (ED50)” value at HLA-A*24:02 [3] (wild-type epitopes marked *) was 2000 nM.
